Test results published in patent publication US3976768A, “Fortimicin A” (Abbott Laboratories, priority 1973, dated 1976).
In brackets after ≈: the same amount, converted by molar mass. Entries after “also recorded” stand apart in the source; their conditions may differ.

Key:
[1] = test system: bacteria of the genus Proteus; experiment: Antibacterial activity against bacteria of the genus Proteus (in words); format: cell-based
Staphylococcus aureus = experiment: Antibacterial activity against resistant Staphylococcus aureus (in words); format: cell-based; details: Staphylococcus aureus resistant to various known antibiotics
[2] = test system: Gram-positive and Gram-negative bacteria; experiment: Antibacterial activity against Gram-positive and Gram-negative bacteria (in words); format: cell-based
Escherichia coli KY 8314 = experiment: Antibacterial spectrum, agar dilution method (pH 8.0); format: cell-based; details: KY8314, resistant to Streptomycin, read-out: Minimum inhibitory concentration
[3] = test system: Proteus vulgaris ATCC 6897; experiment: as above; format: cell-based; details: ATCC6897, read-out: Minimum inhibitory concentration
[4] = test system: Proteus rettgeri Booth KY 4288; experiment: as above; format: cell-based; details: Providencia rettgeri, read-out: Minimum inhibitory concentration
Escherichia coli ATCC 26 = experiment: as above; format: cell-based; details: ATCC26, read-out: Minimum inhibitory concentration
Escherichia coli KY 8331 = experiment: as above; format: cell-based; details: KY8331, resistant to Kanamycin, Ribostamycin, Neomycin, Paromomycin and Lividomycin, read-out: Minimum inhibitory concentration
[5] = test system: Proteus vulgaris Abbott JJ, KY 4295; experiment: as above; format: cell-based; details: read-out: Minimum inhibitory concentration
[6] = test system: Staphylococcus aureus KY 8950; experiment: as above; format: cell-based; details: KY8950, resistant to Streptomycin, Tetracycline, Penicillin and sulfonamide, read-out: Minimum inhibitory concentration
Escherichia coli KY 8315 = experiment: as above; format: cell-based; details: KY8315, resistant to Streptomycin, Kanamycin, Paromomycin and Neomycin, read-out: Minimum inhibitory concentration
[7] = test system: Proteus morganii Jenkins KY 4298; experiment: as above; format: cell-based; details: Morganella morganii, read-out: Minimum inhibitory concentration
Escherichia coli KY 8327 = experiment: as above; format: cell-based; details: KY8327, pH 8, read-out: Minimum inhibitory concentration
[8] = test system: Klebsiella pneumoniae ATCC 10031; experiment: as above; format: cell-based; details: ATCC10031, read-out: Minimum inhibitory concentration
[9] = test system: Bacillus cereus var. mycoides ATCC 9463; experiment: microbe, parasite or virus in culture; format: cell-based; details: ATCC9463, pH 8, read-out: Minimum inhibitory concentration
[10] = test system: Proteus mirabilis No. 39 KY 4290; experiment: Antibacterial spectrum, agar dilution method (pH 8.0); format: cell-based; details: NO.39KY4290, read-out: Minimum inhibitory concentration
[11] = test system: Staphylococcus aureus KY 8942; experiment: as above; format: cell-based; details: KY8942, resistant to Kanamycin, Paramomycin, Streptomycin, Gentamicin and Nebramycin, read-out: Minimum inhibitory concentration
[12] = test system: Staphylococcus aureus ATCC 6538P; experiment: as above; format: cell-based; details: ATCC6538P, read-out: Minimum inhibitory concentration
[13] = test system: Staphylococcus aureus KY 8956; experiment: as above; format: cell-based; details: KY8956, resistant to Streptomycin, Paromomycin, Tetracycline, Erythromycin and Oleandomycin, read-out: Minimum inhibitory concentration
[14] = test system: Shigella sonnei ATCC 9290; experiment: as above; format: cell-based; details: ATCC9290, read-out: Minimum inhibitory concentration
[15] = test system: Salmonella typhosa ATCC 9992; experiment: as above; format: cell-based; details: Salmonella enterica, pH 8, read-out: Minimum inhibitory concentration
Escherichia coli = experiment: Antibacterial activity against resistant Escherichia coli (in words); format: cell-based; details: Escherichia coli resistant to various known antibiotics
Escherichia coli KY 8310 = experiment: Antibacterial spectrum, agar dilution method (pH 8.0); format: cell-based; details: KY8310, resistant to Chloramphenicol, Streptomycin, Kanamycin, Gentamicin, Kanamycin B, Paromomycin, Tetracycline and Spectinomycin, read-out: Minimum inhibitory concentration
[16] = Solubility of the free base; format: physicochemical
[17] = test system: Pseudomonas aeruginos KY 8510; experiment: Antibacterial spectrum, agar dilution method (pH 8.0); format: cell-based; details: KY8510, pH 8, read-out: Minimum inhibitory concentration
Escherichia coli KY 8332 = experiment: as above; format: cell-based; details: KY8332, resistant to Kanamycin and Tobramycin, read-out: Minimum inhibitory concentration
[18] = test system: Bacillus cereus ATCC 9634; experiment: as above; format: cell-based; details: ATCC9634, read-out: Minimum inhibitory concentration
[19] = test system: Staphylococcus aureus KY 8957; experiment: as above; format: cell-based; details: KY8957, resistant to Chloramphenicol, Streptomycin, Kanamycin B, Tetracycline and Paromomycin, read-out: Minimum inhibitory concentration
[20] = test system: Proteus rettgeri Hambrook KY 4289; experiment: as above; format: cell-based; details: Providencia rettgeri, read-out: Minimum inhibitory concentration
[21] = test system: Bacillus subtilis No. 10707; experiment: as above; format: cell-based; details: read-out: Minimum inhibitory concentration
[22] = test system: Proteus mirabilis No. 825 KY 4292; experiment: as above; format: cell-based; details: NO.825KY4292, read-out: Minimum inhibitory concentration
Proteus vulgaris KY 4296 = experiment: as above; format: cell-based; details: KY4296, resistant to nalidixic acid, read-out: Minimum inhibitory concentration
[23] = test system: Proteus mirabilis Finland 9 KY 4293; experiment: as above; format: cell-based; details: FINLAND9KY4293, read-out: Minimum inhibitory concentration
Escherichia coli KY 8302 = experiment: as above; format: cell-based; details: KY8302, resistant to Chloramphenicol, Streptomycin, Kanamycin, Paromomycin, Tetracycline and Spectinomycin, read-out: Minimum inhibitory concentration
[24] = test system: Escherichia coli Juhl KY 4286; experiment: In vivo test on mice infected intraperitoneally with Escherichia coli, subcutaneous treatment; set-up: species or system mice infected with Escherichia coli Juhl KY 4286
Protocol: In this respect, in vivo tests have been conducted on mice infected intraperitoneally with Escherichia coli Juhl KY 4286. The thus infected mice were treated with various concentrations of Fortimicin A by subcutaneous […]. As a result the ED50 of Fortimicin A has been determined to be 6mg/kg. In view of the excellent antibacterial activity, the present substance, Fortimicin A, is considered to be useful in medical treatment as an antibacterial substance. Moreover, in view of the foregoing wide antibacterial spectrum, Fortimicin A may also be useful as a surface antibacterial agent.

[25] = test system: Pseudomonas aeruginosa BMH No. 1; experiment: Antibacterial spectrum, agar dilution method (pH 8.0); format: cell-based; details: BMHNO.1, read-out: Minimum inhibitory concentration
[26] = test system: Staphylococcus aureus KY 8953; experiment: as above; format: cell-based; details: KY8953, resistant to Streptomycin, Kanamycin, Paromomycin, Tetracycline, Neomycin, Kanamycin B and Erythromycin, read-out: Minimum inhibitory concentration
[27] = test system: Streptococcus faecalis ATCC 10541; experiment: as above; format: cell-based; details: Enterococcus faecalis, ATCC10541, read-out: Minimum inhibitory concentration

## COC1C(O)C(N)C(OC2OC(C(C)N)CCC2N)C(O)C1N(C)C(=O)CN (centres unmarked) [Fortimicin A]
[1]
  Antibacterial activity: satisfactory antibacterial activity
Staphylococcus aureus
  Antibacterial activity: strong antibacterial activity
[2]
  Antibacterial activity: active upon Gram-positive and Gram-negative bacteria; also recorded: wide range of activity
Escherichia coli KY 8314
  MIC: 0.26 µg/mL (≈ 0.641 µM)
[3]
  MIC: 0.16 µg/mL (≈ 0.395 µM)
[4]
  MIC: 0.8 µg/mL (≈ 1.97 µM)
Escherichia coli ATCC 26
  MIC: 0.16 µg/mL (≈ 0.395 µM)
Escherichia coli KY 8331
  MIC: 0.3 µg/mL (≈ 0.74 µM)
[5]
  MIC: 0.8 µg/mL (≈ 1.97 µM)
[6]
  MIC: 1.3 µg/mL (≈ 3.21 µM)
Escherichia coli KY 8315
  MIC: 0.13 µg/mL (≈ 0.321 µM)
[7]
  MIC: 1.6 µg/mL (≈ 3.95 µM)
Escherichia coli KY 8327
  MIC: 0.13 µg/mL (≈ 0.321 µM)
[8]
  MIC: 0.08 µg/mL (≈ 0.197 µM)
[9]
  MIC: 0.6 µg/mL (≈ 1.48 µM)
[10]
  MIC: 0.8 µg/mL (≈ 1.97 µM)
[11]
  MIC: 10 µg/mL (≈ 24.7 µM)
[12]
  MIC: 0.04 µg/mL (≈ 0.0986 µM)
[13]
  MIC: 0.32 µg/mL (≈ 0.789 µM)
[14]
  MIC: 0.3 µg/mL (≈ 0.74 µM)
[15]
  MIC: 0.08 µg/mL (≈ 0.197 µM)
Escherichia coli
  Antibacterial activity: strong antibacterial activity
Escherichia coli KY 8310
  MIC: 0.13 µg/mL (≈ 0.321 µM)
[16]; chloroform, benzene, ethyl acetate, butyl acetate, ethyl ether, butanol, petroleum ether, n-hexane, etc., free base
  Solubility in organic solvents: insoluble
[16]; ethanol and acetone, free base
  Solubility in ethanol and acetone: slightly soluble
[16]; methanol, free base
  Solubility in methanol: soluble
[16]; ordinary organic solvents
  Solubility in the ordinary organic solvents: poorly soluble
[16]; water, free base
  Solubility in water: soluble; also recorded: very soluble
[17]
  MIC: 5 µg/mL (≈ 12.3 µM)
Escherichia coli KY 8332
  MIC: 0.3 µg/mL (≈ 0.74 µM)
[18]
  MIC: 0.6 µg/mL (≈ 1.48 µM)
[19]
  MIC: 0.32 µg/mL (≈ 0.789 µM)
[20]
  MIC: 0.41 µg/mL (≈ 1.01 µM)
[21]
  MIC: 0.02 µg/mL (≈ 0.0493 µM)
[22]
  MIC: 0.41 µg/mL (≈ 1.01 µM)
Proteus vulgaris KY 4296
  MIC: 0.41 µg/mL (≈ 1.01 µM)
[23]
  MIC: 0.8 µg/mL (≈ 1.97 µM)
Escherichia coli KY 8302
  MIC: 0.26 µg/mL (≈ 0.641 µM)
[24]; Escherichia coli, JUHLKY4286, sc
  ED50: 6 mg/kg
[24]; therapy of infectious diseases caused by the tested bacteria
  Therapeutic effects: remarkable therapeutic effects
[25]
  MIC: 5 µg/mL (≈ 12.3 µM)
[26]
  MIC: 1.3 µg/mL (≈ 3.21 µM)
[27]
  MIC: 10 µg/mL (≈ 24.7 µM)

## CNC1C(O)C(OC2OC(C(C)N)CCC2N)C(N)C(O)C1OC (centres unmarked) [Fortimicin B]
[2]
  Antibacterial activity: activity against Gram-positive and Gram-negative bacteria
